Laboratory results taken from patent US10261090B2, “Glutathione-detecting fluorescent probe” (THE UNIVERSITY OF TOKYO, priority 2014, dated 2019).
Read-outs that look alike come from different tables or passages of the source.

Assays:
[1] = Fluorescence assay for glutathione: Kd from absorption/fluorescence change on glutathione addition; format: binding
Protocol: (§1) Glutathione was reacted with the fluorescent probe 2Me SiR600 (compound 1) synthesized in Example 1, and fluorescence assay was conducted. A Shimadzu UV-2450 (Shimadzu Corporation) and a Hitachi F-7000 (Hitachi, Ltd.) were used in ultraviolet-visible spectroscopy and fluorescence spectroscopy. A fluorescent probe was diluted to a final concentration of 1 μM in 0.2 M sodium phosphate buffer (pH 7.4), containing 0.1-1% DMSO. The absorption spectrum and fluorescence spectrum were measured when various concentration of glutathione was added in the range of 1 μM-100 mM. The excitation wavelength was 590 nm.

[2] = system: intracellular glutathione in cultured cancer cells; test: Cell imaging in cultured cancer cells by confocal microscope; format: cell-based; conditions: for change in fluorescence intensity ratio in cells: NEM addition, FIGS. 8 and 9
Protocol: Next, cell imaging in cultured cancer cells was conducted using compound 1 (2Me SiR600) as a fluorescent probe. Measurement was conducted using a confocal microscope.
Fluorescence imaging in cultured cancer cells was conducted in the same way as in Example 4 using compound 8 (2Me SiR600-TMR) as the fluorescent probe (FIG. 8).

[3] = Ultraviolet-visible and fluorescence spectroscopy of the probes; format: physicochemical; conditions: for Quantum yield: 0.2 M sodium phosphate buffer pH 7.4
Protocol: as §1

[4] = Table 1, dissociation constant for glutathione, calculated from changes in the fluorescence spectrum, pH 7.4, read-out: Kd
[5] = Table 1, 1 μM probe, 0.2 M sodium phosphate buffer pH 7.4, 0.1-1% DMSO
[6] = Table 2, dissociation constant for glutathione, same conditions as Example 2, read-out: Kd
[7] = Table 2, same conditions as Example 2

Row | SMILES | Kd [1, 4] | Absorption peak [nm] [3, 5] | Fluorescence peak [nm] [3, 5] | Quantum yield ([3]; Table 1) | Kd [1, 6] | Absorption peak [nm] [3, 7] | Fluorescence peak [nm] [3, 7] | Fluorescence quantum yield [3, 7] | further results
1 | Cc1ccccc1C1=C2C=CC(=N)C=C2[Si](C)(C)c2cc(N)ccc21 [Compound 1, 2Me SiR600] | 1100 µM | 593 nm | 613 nm | 0.38 |  |  |  |  | Kd ([1]; from values at absorption peak wavelength (593 nm) against glutathione concentration, read-out: dissociation constant Kd): 1000 µM; Kd ([1]; from values at fluorescence peak wavelength (614 nm) against glutathione concentration, excitation 590 nm, read-out: dissociation constant Kd): 1100 µM; change in fluorescence intensity in cells ([2]; glutathione depletion due to N-ethylmaleimide (NEM) addition, FIG. 4): an increase in fluorescence intensity was found
2 | CN(C)c1ccc2c(c1)[Si](C)(C)C1=CC(=[N+](C)C)C=CC1=C2c1ccccc1 [Compound 2, Ph SiR650] | 900 µM | 645 nm | 668 nm | 0.14 |  |  |  |  | 
3 | COc1ccccc1C1=C2C=CC(=[N+](C)C)C=C2[Si](C)(C)c2cc(N(C)C)ccc21 [Compound 3, 2OMe SiR650] | 41000 µM | 649 nm | 672 nm | 0.37 |  |  |  |  | 
4 | CN(C)c1ccc2c(c1)[Si](C)(C)C1=CC(=[N+](C)C)C=CC1=C2c1ccccc1O [Compound 4, 2OH SiR650] | 43000 µM | 648 nm | 672 nm | 0.31 |  |  |  |  | 
5 | CN(C)c1ccc2c(c1)[Si](C)(C)C1=CC(=[N+](C)C)C=CC1=C2c1ccccc1C#N [Compound 5, 2CN SiR650] | 1200 µM | 658 nm | 683 nm | 0.25 |  |  |  |  | 
6 | COc1ccccc1C1=c2cc3c(cc2[Si](C)(C)c2cc4c(cc21)OCCN4C)=[N+](C)CCO3 [Compound 6, 2OMe OxaSiR diMe] | 700 µM | 699 nm | 740 nm | 0.08 |  |  |  |  | 
7 | CN1CCOc2cc3c(cc21)[Si](C)(C)c1cc2c(cc1=C3c1ccccc1O)OCC[N+]=2C [Compound 7, 2OH OxaSiR diMe] | 900 µM | 699 nm | 739 nm | 0.07 |  |  |  |  | 
8 | Cc1cc(C(=O)NC2CCC(NC(=O)c3ccc(-c4c5ccc(=[N+](C)C)cc-5oc5cc(N(C)C)ccc45)c(C(=O)[O-])c3)CC2)ccc1C1=C2C=CC(=N)C=C2[Si](C)(C)c2cc(N)ccc21 (stereo not drawn) [Compound 8, 2Me SiR600-TMR] |  |  |  |  |  |  |  |  | change in fluorescence intensity ratio in cells [2]: change in fluorescence intensity ratio observed
9 | COC(=O)c1cc(C(=O)NC2CCC(NC(=O)c3ccc(C4=C5C=CC(=N)C=C5[Si](C)(C)c5cc(N)ccc54)c(C)c3)CC2)ccc1-c1c2ccc(=[N+](C)C)cc-2oc2cc(N(C)C)ccc12 (stereo not drawn) [Compound 9, 2Me SiR600-TMR(Me)] |  |  |  |  |  |  |  |  | change in fluorescence intensity ratio in cells [2]: change in fluorescence intensity ratio due to NEM addition was also observed
10 | CCc1ccccc1C1=C2C=CC(=N)C=C2[Si](C)(C)c2cc(N)ccc21.O=C(O)C(F)(F)F [Compound 11] |  |  |  |  | 2300 µM | 592 nm | 614 nm | 0.44 | 
11 | CN=C1C=CC2=C(c3ccccc3OC)c3ccc(NC)cc3[Si](C)(C)C2=C1.O=C(O)C(F)(F)F [Compound 16] |  |  |  |  | 16000 µM | 620 nm | 643 nm | 0.34 | 
12 | CN=C1C=CC2=C(c3ccccc3O)c3ccc(NC)cc3[Si](C)(C)C2=C1.O=C(O)C(F)(F)F [Compound 17] |  |  |  |  | 21000 µM | 620 nm | 643 nm | 0.22 | 
13 | CN(C)c1ccc2c(c1)[Si](C)(C)C1=CC(=[N+](C)C)C=CC1=C2c1ccccc1F [Compound 18] |  |  |  |  | 1300 µM | 655 nm | 677 nm | 0.19 | 
14 | CN(C)c1ccc2c(c1)[Si](C)(C)C1=CC(=[N+](C)C)C=CC1=C2c1cccc(C(F)(F)F)c1 [Compound 21] |  |  |  |  | 600 µM | 650 nm | 673 nm | 0.20 | 
15 | CN(C)c1ccc2c(c1)[Si](C)(C)C1=CC(=[N+](C)C)C=CC1=C2c1ccc(C(F)(F)F)cc1 [Compound 22] |  |  |  |  | 500 µM | 650 nm | 673 nm | 0.16 | 
16 | CN(C)c1ccc2c(c1)[Si](C)(C)C1=CC(=[N+](C)C)C=CC1=C2c1ccccc1Cl [Compound 23] |  |  |  |  | 27000 µM | 655 nm | 676 nm | 0.30 | 
17 | Cc1ccccc1C1=C2C=CC(=[N+](C)C)C=C2[Si](C)(C)c2cc(N)ccc21 [Compound 26] |  |  |  |  | 15000 µM | 620 nm | 643 nm | 0.14 | 
18 | Cc1ccccc1C1=c2cc3c(cc2[Si](C)(C)c2cc4c(cc21)OCCN4C)=[N+](C)CCO3 [Compound 27] |  |  |  |  | 2100 µM | 695 nm | 738 nm | 0.06 | 
